Values of other authors as cited in patent US12630504B2, “Phenethylamine derivatives, compositions, and methods of use” (CYBIN IRL LIMITED, priority 2020, dated 2026).

Structure (SMILES) | biological activity (due to extensive first-pass metabolism) | oral dose at which orally active (oral, only at high doses owing to low brain bioavailability) [mg]
NCCc1ccc2c(c1)OCO2 [MDPEA, 3,4-methylenedioxyphenethylamine] | biologically inactive | 
COc1cc(CCN)cc(OC)c1OC [Mescaline, 3,4,5-trimethoxyphenethylamine] |  | ~300
